Where two headings read alike, the source gives them in different places.
Experiments:
GEOMETRY mono-1: safety = assay type: in vivo, human; details: for Any treatment‐related AE: Table 5
[1] = single agent; Japanese patients with advanced solid tumors; cited from earlier work
[2] = GEOMETRY mono-1: plasma pharmacokinetics of capmatinib; assay type: in vivo, human; details: for AUC(0-t): AUC0–12, geometric mean (CV%)
METΔex14‐mutated NSCLC = details: global population, cited from earlier work
MET‐amplified NSCLC = details: global population, cited from earlier work

CNC(=O)c1ccc(-c2cnc3ncc(Cc4ccc5ncccc5c4)n3n2)cc1F [capmatinib, Capmatinib]
Treatment‐related AE (investigations): Platelet count decreased (GEOMETRY mono-1: safety; any grade, n = 45): 8 (17.8) n (%) of patients
Treatment‐related AE (investigations): WBC count decreased (GEOMETRY mono-1: safety; any grade, n = 45): 4 (8.9) n (%) of patients
Treatment‐related AE (investigations): γGT increased (GEOMETRY mono-1: safety; any grade, n = 45): 3 (6.7) n (%) of patients
Treatment‐related AE: Anaemia (GEOMETRY mono-1: safety; any grade, n = 45): 3 (6.7) n (%) of patients
Treatment‐related AE: Cellulitis (GEOMETRY mono-1: safety; any grade, n = 45): 3 (6.7) n (%) of patients
Treatment‐related AE: Constipation (GEOMETRY mono-1: safety; any grade, n = 45): 5 (11.1) n (%) of patients
Treatment‐related AE: Decreased appetite (GEOMETRY mono-1: safety; any grade, n = 45): 10 (22.2) n (%) of patients
Treatment‐related AE: Diarrhoea (GEOMETRY mono-1: safety; any grade, n = 45): 8 (17.8) n (%) of patients
Treatment‐related AE: Dry skin (GEOMETRY mono-1: safety; any grade, n = 45): 4 (8.9) n (%) of patients
Treatment‐related AE: Fatigue (GEOMETRY mono-1: safety; any grade, n = 45): 4 (8.9) n (%) of patients
Treatment‐related AE: Headache (GEOMETRY mono-1: safety; any grade, n = 45): 3 (6.7) n (%) of patients
Treatment‐related AE: Hypoalbuminaemia (GEOMETRY mono-1: safety; any grade, n = 45): 4 (8.9) n (%) of patients
Treatment‐related AE: Malaise (GEOMETRY mono-1: safety; any grade, n = 45): 3 (6.7) n (%) of patients
Treatment‐related AE: Nausea (GEOMETRY mono-1: safety; any grade, n = 45): 16 (35.6) n (%) of patients
Treatment‐related AE: Oedema peripheral (GEOMETRY mono-1: safety; any grade, n = 45): 14 (31.1) n (%) of patients
Treatment‐related AE: Pyrexia (GEOMETRY mono-1: safety; any grade, n = 45): 7 (15.6) n (%) of patients
Treatment‐related AE: Rash (GEOMETRY mono-1: safety; any grade, n = 45): 5 (11.1) n (%) of patients
Treatment‐related AE: Vomiting (GEOMETRY mono-1: safety; any grade, n = 45): 12 (26.7) n (%) of patients
Any treatment‐related AE (GEOMETRY mono-1: safety; any grade, n = 45): 44 (97.8) n (%) of patients
Treatment‐related AE (investigations): ALT increased (GEOMETRY mono-1: safety; grade 3/4, n = 45): 2 (4.4) n (%) of patients
Treatment‐related AE (investigations): AST increased (GEOMETRY mono-1: safety; grade 3/4, n = 45): 2 (4.4) n (%) of patients
Treatment‐related AE (investigations): Amylase increased (GEOMETRY mono-1: safety; grade 3/4, n = 45): 2 (4.4) n (%) of patients
Treatment‐related AE (investigations): Blood ALP increased (GEOMETRY mono-1: safety; grade 3/4, n = 45): 0 n (%) of patients
Treatment‐related AE (investigations): Blood creatinine increased (GEOMETRY mono-1: safety; grade 3/4, n = 45): 0 n (%) of patients
Treatment‐related AE (investigations): Lipase increased (GEOMETRY mono-1: safety; grade 3/4, n = 45): 3 (6.7) n (%) of patients
Treatment‐related AE (investigations): Neutrophil count decreased (GEOMETRY mono-1: safety; grade 3/4, n = 45): 3 (6.7) n (%) of patients
Treatment‐related AE (investigations): Platelet count decreased (GEOMETRY mono-1: safety; grade 3/4, n = 45): 2 (4.4) n (%) of patients
Treatment‐related AE (investigations): WBC count decreased (GEOMETRY mono-1: safety; grade 3/4, n = 45): 1 (2.2) n (%) of patients
Treatment‐related AE (investigations): γGT increased (GEOMETRY mono-1: safety; grade 3/4, n = 45): 1 (2.2) n (%) of patients
Treatment‐related AE: Anaemia (GEOMETRY mono-1: safety; grade 3/4, n = 45): 1 (2.2) n (%) of patients
Treatment‐related AE: Cellulitis (GEOMETRY mono-1: safety; grade 3/4, n = 45): 1 (2.2) n (%) of patients
Treatment‐related AE: Constipation (GEOMETRY mono-1: safety; grade 3/4, n = 45): 1 (2.2) n (%) of patients
Treatment‐related AE: Decreased appetite (GEOMETRY mono-1: safety; grade 3/4, n = 45): 2 (4.4) n (%) of patients
Treatment‐related AE: Diarrhoea (GEOMETRY mono-1: safety; grade 3/4, n = 45): 1 (2.2) n (%) of patients
Treatment‐related AE: Dry skin (GEOMETRY mono-1: safety; grade 3/4, n = 45): 0 n (%) of patients
Treatment‐related AE: Fatigue (GEOMETRY mono-1: safety; grade 3/4, n = 45): 0 n (%) of patients
Treatment‐related AE: Headache (GEOMETRY mono-1: safety; grade 3/4, n = 45): 0 n (%) of patients
Treatment‐related AE: Hypoalbuminaemia (GEOMETRY mono-1: safety; grade 3/4, n = 45): 0 n (%) of patients
Treatment‐related AE: Malaise (GEOMETRY mono-1: safety; grade 3/4, n = 45): 1 (2.2) n (%) of patients
Treatment‐related AE: Nausea (GEOMETRY mono-1: safety; grade 3/4, n = 45): 0 n (%) of patients
Treatment‐related AE: Oedema peripheral (GEOMETRY mono-1: safety; grade 3/4, n = 45): 3 (6.7) n (%) of patients
Treatment‐related AE: Pyrexia (GEOMETRY mono-1: safety; grade 3/4, n = 45): 0 n (%) of patients
Treatment‐related AE: Rash (GEOMETRY mono-1: safety; grade 3/4, n = 45): 0 n (%) of patients
Treatment‐related AE: Vomiting (GEOMETRY mono-1: safety; grade 3/4, n = 45): 1 (2.2) n (%) of patients
Any treatment‐related AE (GEOMETRY mono-1: safety; grade 3/4, n = 45): 25 (55.6) n (%) of patients
Patients who experienced at least one AE (GEOMETRY mono-1: safety; of 45 patients, cutoff September 18, 2019): 45 patients
Discontinuation from treatment phase, reason: Adverse event (GEOMETRY mono-1: safety; overall Japanese cohort (n = 45), cutoff April 15, 2019): 8 (17.8) n (%) of patients
Maximum tolerated dose [1]: not identified
Accumulation of exposure ([2]; 400 mg twice daily, Japanese patients): 1.41 fold
Accumulation of exposure ([2]; 400 mg twice daily, overall study result): 1.39 fold
Racc AUC0–12 (accumulation ratio), geometric mean (CV%) ([2]; cycle 1, day 15 (steady state), 400 mg twice daily, fasting, Japanese patients): 1.41
Time at which maximum concentration was reached after administration ([2]; day 15, 400 mg twice daily, Japanese patients): ≤ 1 h
half-life ([2]; human, plasma, oral, 400 mg): 6.54 h
AUC(0-t) ([2]; human, plasma, oral, 400 mg, cycle 1, day 1, 400 mg twice daily, fasting, Japanese patients): 18200 ng·h/mL
AUC(0-t) ([2]; human, plasma, oral, 400 mg, cycle 1, day 15 (steady state), 400 mg twice daily, fasting, Japanese patients): 27000 ng·h/mL
Cmax ([2]; human, plasma, oral, 400 mg, Cmax, geometric mean (CV%), cycle 1, day 15 (steady state), 400 mg twice daily, fasting, Japanese patients): 5920 ng/mL
ORR by BIRC (METΔex14‐mutated NSCLC; first‐line, 28 patients): 68%
Median DOR in responders (METΔex14‐mutated NSCLC; first‐line): 12.6 months
Intracranial responses, share of patients (METΔex14‐mutated NSCLC; patients with evaluable brain metastases at baseline): about half
ORR by BIRC (METΔex14‐mutated NSCLC; second‐/third‐line, 69 patients): 41%
Tumor shrinkage (METΔex14‐mutated NSCLC; second‐/third‐line, in two patients): > 90%
Median DOR in responders (METΔex14‐mutated NSCLC; second‐/third‐line): 9.7 months
Median DOR (MET‐amplified NSCLC; GCN ≥10, first‐line): 7.5 months
Median DOR (MET‐amplified NSCLC; GCN ≥10, second/third‐line): 8.3 months
